Measured values reported in patent publication US20110183969A1, “ANTIFUNGAL COMBINATION THERAPY” (priority 2008, published 2011).
Converted amounts (≈) assume the structure as drawn. Like-named read-outs stand apart in the source and are kept apart here.

Tests used:
Assay type in all cases: cell-based
Fusarium solani FS2 = assay: 24 hr Fusarium solani MIC (RPMI medium, FS2); details: banded into grades
Method: Between 1 and 5 mgs of compound were accurately weighed out into a sterile Eppendorf tube. The compound was dissolved in DMSO to give a solution containing 5 mg/mL. Tubes were stored at −20° C. until required.
On the day of testing thawed solutions were vortex mixed to ensure homogeneity. 30 μL of solution was removed and added to 570 μL of sterile water in a separate sterile Eppendorf The thoroughly mixed solution was used to prepare a series of doubling dilutions in water, in a deep well plate. […] replicate plates were prepared using a Minitrak by aspirating 20 μL from each well into eleven clear polystyrene 96 well plates.
Spores of Aspergillus spp. (Aspergillus fumigatus [two strains], Aspergillus terreus [two strains], Aspergillus niger and Aspergillus flavus) were harvested from cultures grown on Sabarauds agar for 5 days, and resuspended in PBS/Tween 80 to approx 1×10^7 cfu/mL. Other filamentous fungi (Absidia corymbifera, Fusarium solani, Rhizomucor, Scedosporium spp., Trichophyton spp.), were grown on Sabarauds agar for 2-10 days and spores/hyphae resuspended in PBS/Tween to give approx 1×10^7 cfu/mL. Candida species (Candida albicans, Candida glabrata, Candida krusei, Candida parapsilosis and Candida tropicalis) were grown on Sabarauds agar, cells were harvested from the agar using a sterile loop and resuspended in PBS/Tween 80 to approx 1×10^6 cfu/mL. Each organism suspension was diluted in RPMI medium, containing 2% glucose and 0.135 M MOPS buffer (pH 7.0) to 0.5−2×10^4 cfu/mL for Aspergillus spp. and other filamentous fungi and 0.5-2×10^3 cfu/mL for yeast. 80 μL of an organism suspension was added to each well of the plate containing drug dilutions.
This produced MIC plates with a drug range 50-0.05 mg/L and organism inocula of 1-2×10^4 cfu/mL for Aspergillus spp. and other filamentous fungi and 1-2×10^3 cfu/mL for yeasts. All plates were incubated for 24-48 hrs at 35° C. Growth was assessed by monitoring the optical density at 485 nm for each well. The MIC of a compound is the lowest drug concentration that inhibits growth of an organism by >80% compared with a drug free control. MICs are recorded as mg/L. Other growth media can be used for susceptibility testing, and the activity of the described compounds can also be assessed in a medium comprising 1% glucose, 1% ammonium chloride and 0.5% yeast extract (YAG medium). To perform MIC tests in this medium, dilutions of compounds are prepared in microtitre plates as described above. Fungal strains to be tested are grown and harvested in an identical manner to that described above, each organism suspension is then diluted in YAG medium to 0.5-2×10^4 cfu/mL for Aspergillus spp. and other filamentous fungi and 0.5-2×10^3 cfu/mL for yeast. 80 μL of an organism suspension was added to each well of the plate containing drug dilutions. This produced MIC plates with a drug range 50-0.05 mg/L and organism inocula of 1-2×10^4 cfu/mL for Aspergillus spp. and other filamentous fungi and 1-2×10^3 cfu/mL for yeasts. All plates were incubated for 24 hrs at 35° C. Growth was assessed by monitoring the optical density at 485 nm for each well. The MIC of a compound is the lowest drug concentration that inhibits growth of an organism by >70% compared with a drug free control. MICs are recorded as mg/L. In cases where the MIC of an organism is […] mg/L the MIC is repeated using a concentration range of 0.5-0.0005 mg/L. MIC tests in YAG medium have more clear-cut endpoints and have slightly lower MICs than those performed in RPMI medium.
24 hr Fusarium solani MIC Results (RPMI Medium, FS2): […]

Aspergillus terreus AT4 = assay: MIC (YAG medium); details: YAG medium, MIC banded into grades, AT4; for MIC: Aspergillus terreus, read-out: MIC A. terreus (grade)
In short: (§1)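 Broth microdilution, YAG medium, 35° C/24 h. Aspergillus spores from 5-d Sabouraud agar, final 1-2×10^4 cfu/mL. Endpoint: >70% inhibition by OD485, mg/L.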

[1] = test system: Aspergillus fumigatus AF210; assay: MIC (YAG medium); details: YAG medium, MIC banded into grades, AF210; for MIC: Aspergillus fumigatus, read-out: MIC A. fumigatus 210 (grade)
In short: as §1

Aspergillus terreus AT49 = assay: MIC (YAG medium); details: YAG medium, MIC banded into grades, AT49; for MIC: Aspergillus terreus, read-out: MIC A. terreus 49 (grade)
In short: as §1

Aspergillus niger = assay: MIC (YAG medium); details: YAG medium, MIC banded into grades; for MIC: Aspergillus niger, read-out: MIC A. niger (grade)
In short: as §1

Aspergillus flavus = assay: MIC (YAG medium); details: YAG medium, MIC banded into grades; for MIC: Aspergillus flavus, read-out: MIC A. flavus (grade)
In short: as §1

[2] = test system: Aspergillus fumigatus AF293; assay: MIC (YAG medium); details: YAG medium, MIC banded into grades, AF293; for MIC: Aspergillus fumigatus, read-out: MIC A. fumigatus (grade)
In short: as §1

Compound	MIC (Fusarium solani FS2; read-out: MIC) [µg/mL]	MIC (Aspergillus terreus AT4) [µg/mL]	MIC [1] [µg/mL]	MIC (Aspergillus terreus AT49) [µg/mL]	MIC (Aspergillus niger) [µg/mL]	MIC (Aspergillus flavus) [µg/mL]	MIC [2] [µg/mL]	MIC (Fusarium solani FS2)	MIC A. terreus (grade) (Aspergillus terreus AT4)	MIC A. fumigatus 210 (grade) [1]	MIC A. terreus 49 (grade) (Aspergillus terreus AT49)	MIC A. niger (grade) (Aspergillus niger)	MIC A. flavus (grade) (Aspergillus flavus)	MIC A. fumigatus (grade) [2]
C=C1CCN(c2ccc(NC(=O)C(=O)c3c(-c4ccccc4)cc4ccccn34)cc2)CC1 [Example 3, N-[4-(4-methylene-piperidin-1-yl)-phenyl]-2-oxo-2-(2-phenyl-indolizin-3yl) acetamide]								3 (A grade of 3 represents an MIC of less than 1 mg/L)	3 (A grade of 3 represents an MIC of less than 1 mg/L)	3 (A grade of 3 represents an MIC of less than 1 mg/L)	3 (A grade of 3 represents an MIC of less than 1 mg/L)	3 (A grade of 3 represents an MIC of less than 1 mg/L)	3 (A grade of 3 represents an MIC of less than 1 mg/L)	3 (A grade of 3 represents an MIC of less than 1 mg/L)
CC(C)c1cc(NC(=O)C(=O)c2c(-c3ccccc3)cc3ccccn23)ccc1C(=O)OCCn1ccnc1C(C)C [Example 13, 2-Isopropyl-4-[2-oxo-2-(2-phenyl-indolizin-3-yl)-acetylamino]-benzoic acid 2-(2-isopropyl-imidazol-1-yl)-ethyl ester]	1 to 10 (≈ 1.78 to 17.8 µM)	1 to 10 (≈ 1.78 to 17.8 µM)	1 to 10 (≈ 1.78 to 17.8 µM)	< 1	> 10	< 1	< 1							
O=C(Nc1ccc(N2CCN(Cc3cccs3)CC2)cc1)C(=O)c1c(-c2ccccc2)cc2ccccn12 [Example 33, 2-Oxo-2-(2-phenylindolizin-3-yl)-N-[4-(4-thiophen-2-ylmethylpiperazin-1-yl)phenyl] acetamide]									3 (A grade of 3 represents an MIC of less than 1 mg/L)	3 (A grade of 3 represents an MIC of less than 1 mg/L)	3 (A grade of 3 represents an MIC of less than 1 mg/L)	3 (A grade of 3 represents an MIC of less than 1 mg/L)	3 (A grade of 3 represents an MIC of less than 1 mg/L)	3 (A grade of 3 represents an MIC of less than 1 mg/L)

Continued, in another order:

MIC (Fusarium solani FS2; read-out: MIC) [µg/mL]	MIC (Aspergillus terreus AT4) [µg/mL]	MIC [1] [µg/mL]	MIC (Aspergillus terreus AT49) [µg/mL]	MIC (Aspergillus niger) [µg/mL]	MIC (Aspergillus flavus) [µg/mL]	MIC [2] [µg/mL]	Compound	MIC (Fusarium solani FS2)	MIC A. terreus (grade) (Aspergillus terreus AT4)	MIC A. fumigatus 210 (grade) [1]	MIC A. terreus 49 (grade) (Aspergillus terreus AT49)	MIC A. niger (grade) (Aspergillus niger)	MIC A. flavus (grade) (Aspergillus flavus)	MIC A. fumigatus (grade) [2]
1 to 10 (≈ 1.86 to 18.6 µM)	< 1	< 1	< 1	< 1	< 1	< 1	CC1CN(C2CCN(c3ccc(NC(=O)C(=O)c4c(-c5ccccc5)cc5ccccn45)cc3)CC2)CC(C)O1 (centres unmarked) [Example 24, N-{4-[4-(2,6-Dimethyl-morpholin-4-yl)-piperidin-1-yl]-phenyl}-2-oxo-2-(2-phenyl-indolizin-3-yl)-acetamide]							
< 1	< 1	< 1	< 1	< 1	< 1	< 1	CON=C1CCN(c2ccc(NC(=O)C(=O)c3c(-c4ccccc4)cc4ccccn34)cc2)CC1 [Example 2, N-[4-(4-methoxyimino-piperidin-1-yl)-phenyl]-2-oxo-2-(2-phenyl-indolizin-3-yl)-acetamide]							
< 1	< 1	< 1	< 1	< 1	< 1	< 1	O=C(Nc1ccc(N2CCC3(CC2)OCCO3)cc1)C(=O)c1c(-c2ccccc2)cc2ccccn12 [Example 23, N-[4-(1,4-dioxa-8-aza-spiro[4.5]dec-8-yl)-phenyl}-2-oxo-2-(2-phenyl-indolizine-3-yl)-acetamide]							
	1 to 10 (≈ 1.65 to 16.5 µM)	1 to 10 (≈ 1.65 to 16.5 µM)	1 to 10 (≈ 1.65 to 16.5 µM)	1 to 10 (≈ 1.65 to 16.5 µM)	< 1	< 1	O=C(Nc1ccc(N2CCN(c3cccc(N(CCO)CCO)n3)CC2)cc1)C(=O)c1c(-c2ccccc2)cc2ccccn12 [Example 86, N-[4-(4-{6-[Bis-(2-hydroxy-ethyl)-amino]-pyridin-2-yl}-piperazin-1-yl)-phenyl]-2-oxo-2-[2-phenyl-indolizin-3-yl)-acetamide]							
	< 1	> 10	< 1	> 10	< 1	> 10	O=C(Nc1ccc(-c2cocn2)cc1)C(=O)c1c(-c2ccc(-c3ccccc3)cc2)cc2ccccn12 [Example 85, 2-(2-Biphenyl-4-yl-indolizin-3-yl)-N-(4-oxazol-4-yl-phenyl)-2-oxo-acetamide]							
